Experimental data published in patent publication US11827628B2, “Compositions and methods for inhibition of the JAK pathway” (Rigel Pharmaceuticals, Inc., priority 2005, dated 2023).
pIC50: −log10 of the molar value. Counter-ions that a name gives are not always drawn.

The molecules below were run on up-regulation of ICAM-1 (CD54) by IFNγ in A549 lung epithelial cells (assay: A549 Epithelial Line Stimulated with IFNγ (ICAM-1 surface expression, FACS)). Details: Homo sapiens, A549, A549 cells stimulated with IFNγ, ICAM-1 expression by FACS; read-out: IC50, Example 43.
Assay type: cell-based, human
Source text: The activity of the compounds of the invention may additionally be characterized by assaying the effect of the 2,4-substituted pyrimidinediamine compounds described herein on A549 lung epithelial cells and U937 cells. A549 lung epithelial cells and U937 cells up-regulate ICAM-1 (CD54) surface expression in response to a variety of different stimuli. Therefore, using ICAM-1 expression as readout, test compound effects on different signaling pathways can be assessed in the same cell type. Stimulation with IL-1β through the IL-1β receptor activates the TRAF6/NFκB pathway resulting in up-regulation of ICAM-1. IFNγ induces ICAM-1 up-regulation through activation of the JAK1/JAK2 pathway. The up-regulation of ICAM-1 can be quantified by flow cytometry across a compound dose curve and EC50, values are calculated. An exemplary assays of this type are described in greater detail in Examples 43 and 44
A549 lung epithelial cells up-regulate ICAM-1 (CD54) surface expression in response to a variety of different stimuli. Therefore, using ICAM-1 expression as readout, compound effects on different signaling pathways can be assessed in the same cell type. IFNγ up-regulates ICAM-1 through activation of the JAK/Stat pathway. In this example, the up-regulation of ICAM-1 by IFNγ was assessed.
The A549 lung epithelial carcinoma cell line originated from the American Type Culture Collection. Routine culturing was with F12K media (Mediatech Inc., Lenexa, KS, Cat. No. 10-025-CV) with 10% fetal bovine serum, 100 I.U. penicillin and […] streptomycin (complete F12k media). Cells were incubated in a humidified atmosphere of 5% CO2 at 37° C. Prior to use in the assay, A549 cells were washed with PBS and trypsinized (Mediatech Inc., Cat. No. 25-052-CI) to lift the cells. The trypsin cell suspension was neutralized with complete F12K media and centrifuged to pellet the cells. The cell pellet was resuspended in complete F12K media at a concentration of 2.0×10^5/mL. Cells were seeded at 20,000 per well, 100 μL total volume, in a flat bottom tissue culture plate and allowed to adhere overnight.
On day two, A549 cells were pre-incubated with a 2,4-substituted pyrimidinediamine test compound or DMSO (control) (Sigma-Aldrich, St. Louis, MO, Catalog No. D2650) for 1 hour. The cells were then stimulated with IFNγ (75 ng/mL) (Peprotech Inc., Rocky Hill, NJ, Cat. No. 300-02) and allowed to incubate for 24 hours. The final test compound dose range was 30 μM to 14 nM in 200 μL F12K media containing 5% FBS, 0.3% DMSO.
On day three, the cell media was removed and the cells were washed with 200 μL PBS (phosphate buffered saline). Each well was trypsinized to dissociate the cells, then neutralized by addition of 200 μL complete F12K media. Cells were pelleted and stained with an APC conjugated mouse anti-human ICAM-1 (CD54) (BD Pharmingen, San Diego, CA, Catalog #559771) antibody for 20 minutes at 4° C. Cells were washed with ice cold FACS buffer (PBS+2% FBS) and surface ICAM-1 expression was analyzed by flow cytometry. Detection was performed using a BD LSR I System Flow Cytometer, purchased from BD Biosciences of San Jose, California Events were gated for live scatter and the geometric mean was calculated (Becton-Dickinson CellQuest software version 3.3, Franklin Lakes, NJ). Geometric means were plotted against the compound concentration to generate a dose response curve.
With COc1ccc(Nc2nc(Nc3ccc(C)c(S(N)(=O)=O)c3)ncc2F)nc1N [VII-9, N2-(3-Aminosulfonyl-4-methylphenyl)-N4-[2-amino-3-methoxypyrid-6-yl]-5-fluoro-2,4-pyrimidinediamine] the pIC50 was 4.77. With NS(=O)(=O)c1cccc(Nc2ncc(F)c(Nc3ccc(CCCCF)cc3)n2)c1 [VI-92, N2-(3-Aminosulfonylphenyl)-5-fluoro-N4-[4-(4-fluorobutyl)phenyl]-2,4-pyrimidinediamine] the pIC50 was 4.89. Work on Cc1ccc2cc(Nc3nc(Nc4ccc(C)c(S(N)(=O)=O)c4)ncc3F)ccc2n1 [VII-71, N2-(3-Aminosulfonyl-4-methylphenyl)-5-fluoro-N4-(2-methylquinolin-6-yl)-2,4-pyrimidinediamine] yielded a pIC50 of 5.26. Work on Cc1ccc(Nc2ncc(F)c(Nc3ccc(CO)cc3)n2)cc1S(N)(=O)=O [VI-52, N2-(3-Aminosulfonyl-4-methylphenyl)-5-fluoro-N4-(4-hydroxymethylphenyl)-2,4-pyrimidinediamine] yielded a pIC50 of 5.23. For Cc1ccc(Nc2ncc(F)c(Nc3ccc4c(c3)N(CC#N)C(=O)CS4)n2)cc1S(N)(=O)=O [Compound V-13, N2-(3-Aminosulphonyl4-methylphenyl)-5-fluoro-N4-(3-oxo-4-cyanomethyl-benzo[1,4]thiazin-6-yl)-2,4-pyrimidinediamine], the pIC50 was 5.16. CN1C(=O)CSc2ccc(Nc3nc(Nc4cccc(S(N)(=O)=O)c4)ncc3F)cc21 [VII-49, N2-(3-Aminosulfonylphenyl)-5-fluoro-N4-(4-methyl-3-oxo-benz[1,4]thiazin-6-yl)-2,4-pyrimidinediamine] gave a pIC50 of 5.51. In the case of N#CCN1C(=O)COc2ccc(Nc3nc(Nc4cccc(S(N)(=O)=O)c4)ncc3F)cc21 [Compound V-7, N2-(3-Aminosulphonylphenyl)-5-fluoro-N4-(3-oxo-4-cyanomethyl-benz[1,4]oxazin-6-yl]-2,4-pyrimidinediamine], the pIC50 was 5.30. Cc1ccc(Nc2ncc(F)c(Nc3ccc4c(c3)N(CC#N)C(=O)CO4)n2)cc1S(N)(=O)=O [Compound V-8, N2-(3-Aminosulphonyl-4-methylphenyl)-5-fluoro-N4-[3-oxo-4-cyanomethyl-benz[1,4]oxazin-6-yl]-2,4-pyrimidinediamine] was tested, and the pIC50 was 5.28. Cc1ccc(Nc2ncc(F)c(Nc3ccc(CCCF)cc3)n2)cc1S(N)(=O)=O [VI-84, N2-(3-Aminosulfonyl-4-methylphenyl)-5-fluoro-N4-[4-(3-fluoropropyl)phenyl]-2,4-pyrimidinediamine] was tested, and the pIC50 was 5.34. COc1ccc(Nc2nc(Nc3ccc(C(C)C)c(S(N)(=O)=O)c3)ncc2F)cc1Cl [VI-45, N2-(3-Aminosulfonyl-4-iso-propylphenyl)-N4-(3-chloro-4-methoxy-phenyl)-5-fluoro-2,4-pyrimidinediamine] was tested, and the pIC50 was 4.98. For C#CCNc1ccc(Nc2nc(Nc3ccc(C)c(S(N)(=O)=O)c3)ncc2F)cc1 [VI-65, N2-(3-Aminosulfonyl-4-methylphenyl)-5-fluoro-N4-[4-(prop-2-ynylamino)phenyl]-2,4-pyrimidinediamine], the pIC50 was 5.38. For NS(=O)(=O)c1cccc(Nc2ncc(F)c(Nc3ccc(CCCF)cc3)n2)c1 [VI-83, N2-(3-Aminosulfonylphenyl)-5-fluoro-N4-[4-(3-fluoropropyl)phenyl]-2,4-pyrimidinediamine], the pIC50 was 5.14. C#CCOc1ccc(Nc2nc(Nc3ccc(C)c(S(N)(=O)=O)c3)ncc2F)cc1F [VI-60, N2-(3-Aminosulfonyl-4-methylphenyl)-5-fluoro-N4-[3-fluoro-4-(prop-2-ynyloxy)phenyl]-2,4-pyrimidinediamine] gave a pIC50 of 5.42. C#CCOc1ccc(Nc2nc(Nc3ccc(C)c(S(=O)(=O)NC)c3)ncc2F)cc1 [VI-68, 5-Fluoro-N2-(4-methyl-3-methylaminosulfonylphenyl)-N4-[4-(prop-2-ynyloxy)phenyl]-2,4-pyrimidinediamine] was tested, and the pIC50 was 4.57. Molecule COc1ccc(Nc2nc(Nc3cccc(S(N)(=O)=O)c3)ncc2F)cn1 [VII-6, N2-(3-Aminosulfonylphenyl)-5-fluoro-N4-(2-methoxypyrid-5-yl)-2,4-pyrimidinediamine] has a pIC50 of 4.63. With NS(=O)(=O)c1cc(Nc2ncc(F)c(Nc3ccc(O)cc3)n2)ccc1F [VI-100, N2-(3-Aminosulfonyl-4-fluorophenyl)-5-fluoro-N4-(4-hydroxyphenyl)-2,4-pyrimidinediamine] the pIC50 was 5.04. For NS(=O)(=O)c1ccc(Nc2ncc(F)c(Nc3ccc(CCCCO)cc3)n2)cc1 [VI-88, N2-(4-Aminosulfonylphenyl)-5-fluoro-N4-[4-(4-hydroxybutyl)phenyl]-2,4-pyrimidinediamine], the pIC50 was 4.61. With Cc1ccc(Nc2ncc(F)c(Nc3ccc(Cl)c(Cl)c3)n2)cc1S(N)(=O)=O [VI-6, N2-(3-Aminosulfonyl-4-methylphenyl)-N4-(3,4-dichlorophenyl)-5-fluoro-2,4-pyrimidinediamine] the pIC50 was 4.82. Molecule Cc1ccc(Nc2ncc(F)c(Nc3ccc4ncccc4c3)n2)cc1S(N)(=O)=O [VII-69, N2-(3-Aminosulfonyl-4-methylphenyl)-5-fluoro-N4-(quinolin-6-yl)-2,4-pyrimidinediamine] has a pIC50 of 5.12. COc1ccc(Nc2nc(Nc3cc(C)c(Cl)c(S(N)(=O)=O)c3)ncc2F)cc1Cl [VI-17, N2-(3-Aminosulfonyl-4-chloro-5-methylphenyl)-N4-(3-chloro-4-methoxyphenyl)-5-fluoro-2,4-pyrimidinediamine] gave a pIC50 of 5.19. Molecule Cc1ccc(Nc2ncc(F)c(Nc3ccc4c(c3)NC(=O)CS4)n2)cc1S(N)(=O)=O [VII-44, N2-(3-Aminosulphonyl-4-methyl-phenyl)-5-fluoro-N4-(3-oxo-4H-benzo[1,4]thiazin-6-yl)-2,4-pyrimidinediamine] has a pIC50 of 5.04. NS(=O)(=O)c1cccc(Nc2ncc(F)c(Nc3ccc(Cc4ccncc4)cc3)n2)c1 [III-128, N2-(3-Aminosulfonylphenyl)-5-fluoro-N4-[4-(4-pyridylmethyl)phenyl]-2,4-pyrimidinediamine p-Toluenesulfonic Acid Salt] showed a pIC50 of 4.55. COc1cc(Nc2nc(Nc3ccc(Cl)c(S(N)(=O)=O)c3)ncc2F)ccc1Cl [VI-11, N2-(3-Aminosulfonyl-4-chlorophenyl)-N4-(4-chloro-3-methoxyphenyl)-5-fluoro-2,4-pyrimidinediamine] gave a pIC50 of 4.33. In the case of NS(=O)(=O)c1cccc(Nc2ncc(F)c(Nc3ccc(-c4cnco4)cc3)n2)c1 [IV-5, N2-(3-Aminosulfonylphenyl)-5-fluoro-N4-[4-(1,3-oxazol-5-yl)phenyl]-2,4-pyrimidinediamine], the pIC50 was 4.79. With Cc1ccc(Nc2ncc(F)c(Nc3ccc4[nH]cc(CC#N)c4c3)n2)cc1S(N)(=O)=O [IX-14, N2-(3-Aminosulfonyl-4-methylphenyl)-N4-(3-cyanomethyl-1H-indol-5-yl)-5-fluoro-2,4-pyrimidinediamine] the pIC50 was 5.47. With Cc1ccc(Nc2ncc(F)c(Nc3ccc4oc(C#N)cc4c3)n2)cc1S(N)(=O)=O [VII-53, N2-(3-Aminosulfonyl-4-methylphenyl)-N4-(2-cyanobenzofuran-5-yl)-5-fluoro-2,4-pyrimidinediamine] the pIC50 was 5.26. Cc1ccc(Nc2ncc(C)c(Nc3ccc4c(c3)NC(=O)CO4)n2)cc1S(N)(=O)=O [VII-30, N2-(3-Aminosulphonyl-4-methylphenyl)-5-methyl-N4-(3-oxo-benz[1,4]oxazin-6-yl)-2,4-pyrimidinediamine] gave a pIC50 of 5.05. Work on C=Cc1ccc(Nc2nc(Nc3ccc(C)c(S(N)(=O)=O)c3)ncc2F)cc1 [VI-54, N2-(3-Aminosulfonyl-4-methylphenyl)-5-fluoro-N4-(4-vinylphenyl)-2,4-pyrimidinediamine] yielded a pIC50 of 4.51. With CC#CCOc1ccc(Nc2nc(Nc3ccc(C)c(S(N)(=O)=O)c3)ncc2F)cc1 [VI-61, N2-(3-Aminosulfonyl-4-methylphenyl)-N4-[4-(but-2-ynyloxy)phenyl]-5-fluoro-2,4-pyrimidinediamine] the pIC50 was 5.51.
